Measured values published in patent US10010513B2, “Aqueous pharmaceutical composition containing a biologic therapeutic agent and guanidine or a guanidine derivative and an injection including the composition” (Novartis AG, priority 2012, dated 2018).

What was measured:
[1] = Viscosity of the formulations; type: physicochemical; settings: Table 5 summary; 150 mM excipient, IgG1/lambda monoclonal antibody
Protocol: Unless otherwise specifically stated, viscosity of any composition discussed herein is determined at a temperature of 20° C. and a shear rate of 1029 s^−1 with a cone spindle of geometry 0.50°/40 mm.

New Zealand White rabbit = assay: Toxicity of Arginine-containing formulation buffer following intravitreal administration; type: in vivo
Protocol: A study was performed to determine the toxicity of an Arginine-containing formulation buffer following intravitreal administration to the New Zealand White rabbit for 4 weeks. Three buffers in 50 μl volumes and varying in concentrations of Arginine were injected intravitreally on a weekly basis for 3 weeks (i.e., three doses) and evaluated for toxicity. The three buffers were as follows: (1) 10 mM Histidine, 170 mM, Trehalose, 0.01% polysorbate 20, pH 5.5; (2) 50 mM Arginine, 10 mM, Histidine, 120 mM Trehalose, 0.01% polysorbate 20, pH 5.5; and (3) 150 mM Arginine, 10 mM Histidine, 0.01% polysorbate).

SMILES | Reduction of the viscosity of the biologic relative to trehalose, urea and taurin [1] | Damage to photoreceptor cells of the eye (New Zealand White rabbit; higher concentrations, about 150 mM) | Damage to photoreceptor cells of the eye (New Zealand White rabbit; lower concentrations of arginine)
N=C(N)NCCC[C@H](N)C(=O)O [arginine] | far superior in reducing the viscosity | have shown damage to photoreceptor cells | do not cause damage to photoreceptor cells
N=C(N)N [guanidine] | far superior in reducing the viscosity |  | 
